Read-outs that look alike come from different tables or passages of the source.
Key:
[1] = cited from earlier work
[2] = biological target: T1, steroid sulphatase (Homo sapiens, UniProt P08842); details: compared with EMATE; cited from earlier work
T1 sequence (P08842 22-583): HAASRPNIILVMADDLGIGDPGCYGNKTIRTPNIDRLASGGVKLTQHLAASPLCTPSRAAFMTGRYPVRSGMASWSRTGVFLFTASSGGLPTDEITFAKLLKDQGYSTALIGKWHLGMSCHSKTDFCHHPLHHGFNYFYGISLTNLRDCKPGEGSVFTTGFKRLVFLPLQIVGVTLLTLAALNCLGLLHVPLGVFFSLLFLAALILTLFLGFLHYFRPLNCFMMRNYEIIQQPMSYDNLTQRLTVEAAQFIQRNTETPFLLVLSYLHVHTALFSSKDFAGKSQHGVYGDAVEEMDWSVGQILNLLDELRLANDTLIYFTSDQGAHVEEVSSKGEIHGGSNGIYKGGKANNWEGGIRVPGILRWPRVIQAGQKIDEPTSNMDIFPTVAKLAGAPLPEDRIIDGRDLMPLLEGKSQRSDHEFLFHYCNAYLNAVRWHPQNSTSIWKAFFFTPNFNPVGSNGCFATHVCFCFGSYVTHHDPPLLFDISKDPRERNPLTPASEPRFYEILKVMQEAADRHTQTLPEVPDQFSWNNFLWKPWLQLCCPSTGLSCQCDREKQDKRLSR

[3] = system: MCF-7; test: Inhibition of MCF-7 cell proliferation; format: cell-based; details: for IC50: read-out: Concentration for 50% inhibition of MCF-7 proliferation
Method: MCF-7 breast cancer cells are seeded into multi-well culture plates at a density of 10^5 cells/well. Cells were allowed to attach and grown until about 30% confluent when they are treated as follows:
Cells are grown for 6 days in growth medium containing the COI with changes of medium/COI every 3 days. At the end of this period cell numbers were counted using a Coulter cell counter.
Inhibition of MCF-7 Cell Proliferation

[4] = cited from earlier work; remark: listed apart in the source
[5] = biological target: T2, E1-STS (Homo sapiens, UniProt P08842); set-up: endogenous in cells; host or cells: MCF-7; details: 0.1 nM; cited from earlier work
T2 sequence (P08842 22-583): T1 sequence (P08842 22-583)

[6] = biological target: T2, E1-STS; details: compared with EMATE; cited from earlier work

Compound: COc1cc2c(cc1OS(N)(=O)=O)CC[C@@H]1[C@@H]2CC[C@]2(C)C(=O)CC[C@@H]12 [2-methoxyoestrone-3-O-sulphamate]
- oestrogenicity ([1]; rat, in vivo): devoid of oestrogenicity
- potency as a steroid sulphatase inhibitor [2]: equipotent with EMATE

Compound: CCc1cc2c(cc1OS(N)(=O)=O)CC[C@@H]1[C@@H]2CC[C@]2(C)C(CS(C)(=O)=O)CC[C@@H]12 (some centres unmarked) [Compound 8, 2-Ethyl-3-O-sulfamoyl-17-methanesulfonylmethyl estrone]
- % Inhibition of MCF-7 proliferation at 10 μM [3]: 79%

Compound: CCc1cc2c(cc1OS(N)(=O)=O)CC[C@@H]1[C@@H]2CC[C@]2(C)[C@@H](CC)CC[C@@H]12 [Compound 11, 2-Ethyl-3-O-sulfamoyl-17-β-ethyl-17-deoxy estrone]
- % Inhibition of MCF-7 proliferation at 10 μM [3]: 83%

Compound: CCc1cc2c(cc1OS(N)(=O)=O)CC[C@@H]1[C@@H]2CC[C@]2(C)[C@@H](CCF)CC[C@@H]12 [Compound 14, 2-Ethyl-3-O-sulfamoyl-17β-(2-fluoro-ethyl)-17-deoxy estrone]
- % Inhibition of MCF-7 proliferation at 10 μM [3]: 89%

Compound: CCc1cc2c(cc1OS(N)(=O)=O)CC[C@@H]1[C@@H]2CC[C@]2(C)[C@@H](C[N+](=O)[O-])CC[C@@H]12 [Compound 23, 2-Ethyl-3-O-sulfamoyl-17β-nitromethyl-17-deoxy estrone]
- % Inhibition of MCF-7 proliferation at 10 μM [3]: <50%

Compound: CCc1cc2c(cc1OS(N)(=O)=O)CC[C@@H]1[C@@H]2CC[C@]2(C)[C@@H](CC(C)=O)CC[C@@H]12 [Compound 29, 2-Ethyl-3-O-sulfamoyl-17β-(2-oxopropyl) estrone]
- % Inhibition of MCF-7 proliferation at 10 μM [3]: 69%

Compound: COc1cc2c(cc1O)CCC1C2CC[C@@]2(C)C1CC[C@@H]2OC(N)=O (some centres unmarked) [Compound 57, 2-Methoxy-estradiol-17-carbamate]
- IC50 ([3]; Homo sapiens, MCF7): 44 µM

Compound: COc1cc2c(cc1OS(N)(=O)=O)CC[C@@H]1[C@@H]2CC[C@]2(C)[C@@H](OC(N)=O)CC[C@@H]12 [Compound 58, 2-Methoxy-3-O-sulfamoyl estradiol-17-carbamate]
- IC50 [3]: 1.8 µM

Compound: C[C@]12CC[C@@H]3c4ccc(OS(=O)(=O)O)cc4CC[C@H]3[C@@H]1CCC2=O [Compound E1S, oestrone sulphate]
- half-life in blood [4]: 10 to 12 h

Compound: CC12CCC3c4ccc(OS(N)(=O)=O)cc4CCC3C1CCC2=O (centres unmarked) [EMATE, oestrone-3-sulphamate]
- inhibition of E1-STS activity in intact MCF-7 cells [5]: more than 99%
- oral uterotrophic activity relative to estradiol ([1]; rats, oral): 100 times

Compound: oestrone-3-N-sulphamate
- E1-STS inactivation [6]: weaker non-time-dependent inactivators

Compound: oestrone-3-S-sulphamate
- E1-STS inactivation [6]: weaker non-time-dependent inactivators

— patent US20070225256A1, “COMPOUND” (priority 2004, published 2007)
